What was measured:
OR1 [1] = assay type: binding, human
Wild-type KOR [2] = target: T1, Wild-type KOR (Homo sapiens, UniProt P41145); test: Signaling (activation of G protein-mediated signals, adenylyl cyclase inhibition) by wild-type KOR; assay type: cell-based
T1 construct: expressed in transfected cells; host or cells: COS-7 and CHO-KI (for OR1 and OR2)

Wild-type KOR [3] = target: T1, Wild-type KOR; test: biochemical; assay type: binding
OR2 [4] = assay type: cell-based, human
OR2 [5] = target: OR2 (Homo sapiens, UniProt P41145, G198V/DELINS201-226[…]/E297Q, form not given); assay type: cell-based; details: read-out: EC50, signaling by OR2; signaling by OR2
OR2 [6] = assay type: binding, human
OR1 [7] = test: Signaling (activation of G protein-mediated signals, adenylyl cyclase inhibition) by OR1; assay type: cell-based, human; details: relative to signal detected with wild-type KOR
OR1 [8] = target: OR1 (Homo sapiens, UniProt P41145, G198V/DELINS201-226[…], form not given); test: as above; assay type: cell-based
[9] = relative to signal detected with wild-type KOR

T1 sequence (P41145 whole entry): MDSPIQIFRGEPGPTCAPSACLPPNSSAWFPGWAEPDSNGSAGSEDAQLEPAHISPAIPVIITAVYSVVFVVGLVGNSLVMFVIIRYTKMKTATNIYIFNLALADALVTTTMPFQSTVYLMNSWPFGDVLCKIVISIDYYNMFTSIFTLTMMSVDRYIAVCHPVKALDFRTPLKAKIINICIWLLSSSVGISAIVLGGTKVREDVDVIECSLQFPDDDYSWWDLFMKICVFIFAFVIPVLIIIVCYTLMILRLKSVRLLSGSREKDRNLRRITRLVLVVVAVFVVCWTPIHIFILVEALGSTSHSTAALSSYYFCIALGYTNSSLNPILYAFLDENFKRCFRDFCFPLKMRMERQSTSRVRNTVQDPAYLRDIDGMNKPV
Chain of OR1 (Homo sapiens, UniProt P41145, G198V/DELINS201-226[…], form not given) (P41145 with tags, fused parts or gaps DELINS198-226[withheld], form open): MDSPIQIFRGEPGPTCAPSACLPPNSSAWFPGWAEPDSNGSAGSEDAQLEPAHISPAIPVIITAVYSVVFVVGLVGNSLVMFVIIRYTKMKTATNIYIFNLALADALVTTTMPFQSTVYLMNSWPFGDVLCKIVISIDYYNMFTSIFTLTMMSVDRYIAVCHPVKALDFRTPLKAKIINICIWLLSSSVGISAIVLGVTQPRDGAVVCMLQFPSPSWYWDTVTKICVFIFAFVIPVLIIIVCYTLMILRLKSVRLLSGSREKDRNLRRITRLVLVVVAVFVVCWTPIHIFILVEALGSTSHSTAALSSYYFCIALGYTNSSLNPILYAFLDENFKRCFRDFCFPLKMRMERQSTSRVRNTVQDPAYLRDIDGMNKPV
Chain of OR2 (Homo sapiens, UniProt P41145, G198V/DELINS201-226[…]/E297Q, form not given) (P41145 with tags, fused parts or gaps DELINS198-226[withheld]/E297Q, form open): as the sequence (P41145 with tags, fused parts or gaps DELINS198-226[withheld], form open) above, with E294Q counted along it

CCC12CCN(CC3(O)CC3)C(Cc3ccc(O)cc31)C2(C)C (stereo not drawn) [Bremazocine, bremazocine]
Change in binding affinity of OR1 relative to native human KOR (OR1 [1]): no significant change
Fold decrease in binding, OR1 (OR1 [1]): 1.7 fold
EC50 (Wild-type KOR [2]): 0.067 nM
Fold decrease in signaling, Wild-type KOR (Wild-type KOR [2]; [9]): 1 fold
Fold decrease in binding, Wild-type KOR (Wild-type KOR [3]): 1 fold
Ki (Wild-type KOR [3]): 0.038 nM
Fold decrease in signaling, OR2 (OR2 [4]; [9]): 5.17 fold
Biochemical Signal, decrease (summary), OR2 (OR2 [4]; summary table, ↓ = decrease versus wild-type KOR): ↓5x
Amount of ligand required to activate the biochemical signal at OR2 compared to wild-type KOR (OR2 [4]; times more ligand than for wild type KOR): about 5 times
EC50 (OR2 [5]): 0.34 nM
Change in binding affinity of OR2 relative to native human KOR (OR2 [6]): no change
Fold decrease in binding, OR2 (OR2 [6]): 1.2 fold
Fold decrease in signaling, OR1 (OR1 [7]): 1 fold
Inhibition of adenylyl cyclase by OR1 in response to ligand (OR1 [8]; dynorphin only at high concentrations): inhibits adenylyl cyclase
EC50 (OR1 [8]; read-out: EC50, signaling by OR1, signaling by OR1): 0.068 nM
